Laboratory results from ChEMBL document CHEMBL5465560, “Selectivity Literature for EUbOPEN Chemogenomic Library” (2024).

Tests used:
[1] = target: T1, Discoidin domain-containing receptor 2 (Homo sapiens) (UniProt Q16832); assay: Selectivity interaction (KinomeScan (DiscoverX)) EUB0000655a DDR2; conditions: at 10 µM
T1 sequence (whole entry): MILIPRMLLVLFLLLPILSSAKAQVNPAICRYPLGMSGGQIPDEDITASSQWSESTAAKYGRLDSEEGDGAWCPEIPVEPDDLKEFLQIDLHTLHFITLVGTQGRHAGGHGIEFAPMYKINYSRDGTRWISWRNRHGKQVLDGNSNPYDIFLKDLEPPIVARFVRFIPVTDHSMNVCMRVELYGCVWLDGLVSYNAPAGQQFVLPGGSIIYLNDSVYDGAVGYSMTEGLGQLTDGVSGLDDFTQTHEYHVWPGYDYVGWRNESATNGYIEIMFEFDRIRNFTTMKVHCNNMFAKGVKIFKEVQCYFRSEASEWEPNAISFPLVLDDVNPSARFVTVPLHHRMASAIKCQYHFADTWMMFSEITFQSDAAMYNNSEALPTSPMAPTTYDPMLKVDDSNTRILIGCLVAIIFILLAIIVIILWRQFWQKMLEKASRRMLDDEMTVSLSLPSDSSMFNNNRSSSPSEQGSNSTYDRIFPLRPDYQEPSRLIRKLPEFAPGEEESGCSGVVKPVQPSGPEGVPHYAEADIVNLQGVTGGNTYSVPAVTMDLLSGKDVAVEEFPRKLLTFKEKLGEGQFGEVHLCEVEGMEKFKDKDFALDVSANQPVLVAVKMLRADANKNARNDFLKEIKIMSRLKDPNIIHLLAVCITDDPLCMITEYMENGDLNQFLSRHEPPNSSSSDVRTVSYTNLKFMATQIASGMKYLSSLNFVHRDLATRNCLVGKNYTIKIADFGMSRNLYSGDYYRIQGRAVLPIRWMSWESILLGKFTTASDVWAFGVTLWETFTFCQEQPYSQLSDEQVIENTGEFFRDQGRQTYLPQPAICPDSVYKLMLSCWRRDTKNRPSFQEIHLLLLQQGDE

[2] = target: Tyrosine-protein kinase CSK (Homo sapiens) (UniProt P41240); assay: Selectivity interaction (ProQinase) EUB0000171b CSK
[3] = target: Kappa-type opioid receptor (Homo sapiens, UniProt P41145); assay: Selectivity interaction (Panel of kinases, GPCRs, ion channels and transporters (enzymatic assay)) EUB0000223bCl OPRK1
[4] = target: T2, Serine/threonine-protein kinase D3 (Homo sapiens) (UniProt O94806); assay: Selectivity interaction (KinomeScan (DiscoverX)) EUB0000695a PRKD3; conditions: at 100 nM
T2 sequence (whole entry): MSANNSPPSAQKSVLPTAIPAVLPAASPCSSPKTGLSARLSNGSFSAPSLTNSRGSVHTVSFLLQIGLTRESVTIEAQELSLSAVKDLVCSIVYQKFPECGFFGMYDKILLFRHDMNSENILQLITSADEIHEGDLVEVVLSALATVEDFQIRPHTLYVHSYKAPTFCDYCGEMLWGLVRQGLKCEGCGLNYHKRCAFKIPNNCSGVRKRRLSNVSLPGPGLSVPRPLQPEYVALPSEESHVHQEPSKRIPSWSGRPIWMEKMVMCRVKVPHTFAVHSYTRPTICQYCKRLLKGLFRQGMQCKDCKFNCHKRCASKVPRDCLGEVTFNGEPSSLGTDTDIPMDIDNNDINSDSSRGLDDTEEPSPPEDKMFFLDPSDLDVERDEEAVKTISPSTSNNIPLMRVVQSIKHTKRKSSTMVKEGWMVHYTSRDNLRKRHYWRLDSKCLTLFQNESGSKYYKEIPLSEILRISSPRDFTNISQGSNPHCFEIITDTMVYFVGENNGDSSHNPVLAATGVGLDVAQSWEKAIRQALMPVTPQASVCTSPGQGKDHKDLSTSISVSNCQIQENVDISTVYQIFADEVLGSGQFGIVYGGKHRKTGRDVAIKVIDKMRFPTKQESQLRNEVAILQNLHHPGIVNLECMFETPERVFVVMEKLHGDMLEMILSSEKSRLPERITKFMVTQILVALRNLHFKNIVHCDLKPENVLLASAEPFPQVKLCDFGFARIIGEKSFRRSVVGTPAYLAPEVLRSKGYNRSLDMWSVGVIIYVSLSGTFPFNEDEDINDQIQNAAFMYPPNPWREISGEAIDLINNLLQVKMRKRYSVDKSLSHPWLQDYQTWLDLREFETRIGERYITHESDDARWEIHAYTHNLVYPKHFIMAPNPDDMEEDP

[5] = target: T3, Receptor-interacting serine/threonine-protein kinase 4 (Homo sapiens) (UniProt P57078); assay: Selectivity interaction (KinomeScan (DiscoverX)) EUB0000695a RIPK4; conditions: at 100 nM
T3 sequence (whole entry): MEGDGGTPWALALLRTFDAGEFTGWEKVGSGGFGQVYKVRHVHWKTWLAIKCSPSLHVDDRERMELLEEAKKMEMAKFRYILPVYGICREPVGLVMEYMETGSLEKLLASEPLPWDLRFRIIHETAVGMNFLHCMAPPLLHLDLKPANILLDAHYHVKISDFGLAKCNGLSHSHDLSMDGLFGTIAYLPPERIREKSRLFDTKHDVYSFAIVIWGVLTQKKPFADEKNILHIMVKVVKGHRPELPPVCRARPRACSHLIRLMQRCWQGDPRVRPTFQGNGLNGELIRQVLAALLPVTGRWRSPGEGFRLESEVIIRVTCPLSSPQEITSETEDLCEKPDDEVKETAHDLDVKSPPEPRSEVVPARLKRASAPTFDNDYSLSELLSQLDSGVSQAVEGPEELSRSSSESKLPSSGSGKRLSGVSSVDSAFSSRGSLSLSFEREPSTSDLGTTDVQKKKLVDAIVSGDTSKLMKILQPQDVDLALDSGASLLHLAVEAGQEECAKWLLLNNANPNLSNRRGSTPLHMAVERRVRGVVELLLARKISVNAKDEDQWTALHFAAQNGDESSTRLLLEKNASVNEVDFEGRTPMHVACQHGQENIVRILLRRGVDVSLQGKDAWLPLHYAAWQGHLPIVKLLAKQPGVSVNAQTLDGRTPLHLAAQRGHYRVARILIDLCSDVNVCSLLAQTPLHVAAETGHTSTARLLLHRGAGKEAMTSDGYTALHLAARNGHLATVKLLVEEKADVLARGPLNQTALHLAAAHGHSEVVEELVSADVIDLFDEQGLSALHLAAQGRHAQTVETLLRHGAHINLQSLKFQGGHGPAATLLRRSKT

Chain of Tyrosine-protein kinase CSK (Homo sapiens) (P41240 2-450 limits assumed): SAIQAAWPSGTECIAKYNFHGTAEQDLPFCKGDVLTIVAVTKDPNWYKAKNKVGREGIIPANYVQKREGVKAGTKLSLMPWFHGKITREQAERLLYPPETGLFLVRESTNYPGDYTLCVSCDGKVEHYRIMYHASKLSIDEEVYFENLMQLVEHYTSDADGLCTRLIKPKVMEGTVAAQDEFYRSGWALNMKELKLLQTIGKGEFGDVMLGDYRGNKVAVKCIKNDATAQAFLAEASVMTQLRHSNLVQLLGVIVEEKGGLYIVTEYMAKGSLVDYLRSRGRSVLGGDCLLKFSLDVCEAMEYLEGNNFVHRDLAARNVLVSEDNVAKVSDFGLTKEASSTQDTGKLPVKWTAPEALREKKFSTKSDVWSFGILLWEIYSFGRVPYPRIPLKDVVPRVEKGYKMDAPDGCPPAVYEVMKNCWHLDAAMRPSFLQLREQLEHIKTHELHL
Chain of Kappa-type opioid receptor (P41145 whole entry): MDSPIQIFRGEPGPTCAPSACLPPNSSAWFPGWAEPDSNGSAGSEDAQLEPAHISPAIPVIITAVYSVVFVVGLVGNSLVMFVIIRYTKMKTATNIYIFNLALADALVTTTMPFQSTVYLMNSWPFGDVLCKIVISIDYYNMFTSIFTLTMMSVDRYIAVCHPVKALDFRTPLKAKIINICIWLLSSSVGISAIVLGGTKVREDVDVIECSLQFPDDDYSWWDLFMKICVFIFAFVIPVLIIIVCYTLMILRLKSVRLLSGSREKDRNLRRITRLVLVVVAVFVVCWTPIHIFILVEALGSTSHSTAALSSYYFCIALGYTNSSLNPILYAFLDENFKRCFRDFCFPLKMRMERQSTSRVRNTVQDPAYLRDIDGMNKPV

With CN(C)CCOc1ccc(-c2nc(-c3ccncc3)c(-c3ccc4c(c3)CC/C4=N\O)[nH]2)cc1 the % of control [1] was 67%.

Work on C=CC(=O)Nc1cccc(C(=O)Nc2ccc(Nc3cc(-c4[nH]c(SC)nc4C)ccn3)cc2)c1 yielded a % of control ([2]; at 1 µM) of 87% and a % of control ([2]; at 5 µM) of 81%.

In the case of COc1cc(C(=O)N2CC[C@@H](O)[C@@H](N)C2)cc2nc(-c3cc4ccccc4n3CC3CC3)n(C)c12, the pXC50 [3] is reported as 4.1 M.

Cc1cc(F)c(C(=O)Nc2cccc(-c3nncn3C(C)C)n2)cc1-n1cnc(C2CC2)c1 was tested, and the % of control [4] was 78% and the % of control [5] was 100%.
